{"source": "paper PMC8536644", "about": "“Enigmatic mechanism of the N-vinylpyrrolidone hepatocarcinogenicity in the rat” (Archives of Toxicology, 2021)", "key": {"[1]": {"tested_on": "polychromatic erythrocytes of rat bone marrow", "experiment": "Micronucleus test in rat bone marrow (OECD 474)", "settings": "for PCE/1000 Erythrozyten Mean ± SD / PCE/NCE quotient (%) / MN/ 1000 PCE Mean ± SD / MN/ 1000 PCE Range: 5 days", "description": "13-mm filter disks with a pore size of 8 µm were placed on the bottom of 5-mL plastic syringes. Approximately 500 mg of a mixture consisting of equal parts microcrystalline cellulose (Sigmacell®, Typ 50) and alpha-cellulose fibers was added up to the 2-mL mark.\nBone marrow preparation was performed according to published methods (Romagna and Staniforth [1989]; Salamone et al. [1980]). The soft tissue was removed from the femora and the epiphyses were cut off. The bone marrow was rinsed off the diaphyses with approximately 3 mL 37 °C-warm fetal calf serum (FCS) (Biochrom, Berlin, Germany) per femur, placed on the above-described cellulose column and eluted with 3 mL of Hank's Balanced Salt Solution (HBSS) (Biochrom, Berlin, Germany) (with Ca^2+ und Mg^2+). The eluate was centrifuged at 300 g for 5 min and the pellet was suspended in […] FCS. From this suspension three portions per femur were individually placed on slides, air-dried and then stained for 4 min in May-Grunwald solution 1 (Merck, Darmstadt, Germany), followed by 4 min in May–Grunwald solution 2 (May-Grunwald solution 1 diluted 1:1 with aqua bidest.), rinsed in aqua bidest and then stained with Giemsa solution (7.5% dilution derived from Giemsa obtained from Merck, Darmstadt, Germany) for 15 min. Subsequently, the slides were washed twice with aqua bidest, then dried, cleared in xylene and covered with Corbit-Balsam (I. Hecht, Kiel-Hasse, Germany).\n2000 polychromatic erythrocytes (PCE) per animal (1000 per slide) were evaluated at 1000-fold magnification under immersion oil for the presence/absence of large and small micronuclei as well as the proportion of PCE among the total erythrocytes. Statistical significance of differences between treated versus untreated groups was evaluated by the one-sided Wilcoxon test (using the program MUKERN). The result is regarded as positive when the following criteria are fulfilled: 1.\n2000 PCEs were analyzed for micronuclei per animal."}, "[2]": {"experiment": "Trypan Blue viability of the single cell suspension, lung", "assay_type": "in vivo, rat", "settings": "rat, inhaled", "method": "The organ parts (see above) were washed in mincing buffer (50 mM EDTA in HBSS [without Ca^2+ and Mg^2+] pH 7.5: DMSO 9:1 (v/v), the latter added shortly before use, stored at 4 °C), cut into 1 to 2-mm pieces in ice-cold mincing buffer and transferred to a cell sieve with 70-µm pores. The viability of the cell suspension was evaluated by the Trypan Blue Assay (Strober [2001])."}}, "note": "Read-outs that look alike come from different tables or passages of the source.", "data": [{"smiles": "C=CN1CCCC1=O", "note": "[NVP, N-vinylpyrrolidone]", "values": [{"measurement": "PCE/1000 Erythrozyten Mean ± SD", "setting": "[1]; 10 ppm inhalation, male", "result": "622 ± 33", "unit": "PCE/1000 Erythrozyten"}, {"measurement": "PCE/NCE quotient (%)", "setting": "[1]; 10 ppm inhalation, male", "result": 102, "unit": "%"}, {"measurement": "MN/ 1000 PCE Mean ± SD", "setting": "[1]; 20 ppm inhalation, female", "result": "2.3 ± 0.8", "unit": "MN/ 1000 PCE"}, {"measurement": "MN/ 1000 PCE Range", "setting": "[1]; 20 ppm inhalation, female", "result": "1.0–3.0 MN/ 1000 PCE"}, {"measurement": "PCE/1000 Erythrozyten Mean ± SD", "setting": "[1]; 20 ppm inhalation, female", "result": "615 ± 48", "unit": "PCE/1000 Erythrozyten"}, {"measurement": "PCE/NCE quotient (%)", "setting": "[1]; 20 ppm inhalation, female", "result": 97, "unit": "%"}, {"measurement": "MN/ 1000 PCE Mean ± SD", "setting": "[1]; 20 ppm inhalation, male", "result": "2.0 ± 0.9", "unit": "MN/ 1000 PCE"}, {"measurement": "MN/ 1000 PCE Range", "setting": "[1]; 20 ppm inhalation, male", "result": "0.5–3.0 MN/ 1000 PCE"}, {"measurement": "PCE/1000 Erythrozyten Mean ± SD", "setting": "[1]; 20 ppm inhalation, male", "result": "553 ± 57", "unit": "PCE/1000 Erythrozyten"}, {"measurement": "PCE/NCE quotient (%)", "setting": "[1]; 20 ppm inhalation, male", "result": 90, "unit": "%"}, {"measurement": "Micronuclei in normochromatic erythrocytes (NCE)", "setting": "[1]; after exposure to NVP", "result": "no micronuclei were observed"}, {"measurement": "Decrease of the ratio of PCE to NCE", "setting": "[1]; high-dose (20 ppm) males vs vehicle control", "result": 10, "unit": "%"}, {"measurement": "viability at 5 days", "setting": "[2]; both sexes, Wistar Crl:WI (Han), lung single cell suspension, lung cells, NVP-exposed, read-out: Viability, range of the individual animals", "result": "93 to 100", "unit": "%"}, {"measurement": "viability at 5 days", "setting": "[2]; female, Wistar, lung, 5 ppm, lung, female, Comet with FPG (Table 11), 5 ppm inhalation, 5 days, individual animals, read-out: Individual viability (%)", "result": 99, "unit": "%"}, {"measurement": "viability at 5 days", "setting": "[2]; female, Wistar, lung, 5 ppm, lung, female, Comet with FPG (Table 11), 5 ppm inhalation, 5 days, read-out: Viability (%) (mean ± SD)", "result": "99 ± 1", "unit": "%"}, {"measurement": "viability at 5 days", "setting": "[2]; female, Wistar, lung, 5 ppm, lung, female, no FPG, 5 ppm inhalation, 5 days, individual animals, read-out: Individual viability (%)", "result": 99, "unit": "%"}, {"measurement": "viability at 5 days", "setting": "[2]; female, Wistar, lung, 5 ppm, lung, female, no FPG, 5 ppm inhalation, 5 days, read-out: Viability (%) (mean ± SD)", "result": "99 ± 1", "unit": "%"}, {"measurement": "viability at 5 days", "setting": "[2]; female, Wistar, lung, 10 ppm, lung, female, Comet with FPG (Table 11), 10 ppm inhalation, 5 days, individual animals, read-out: Individual viability (%)", "result": 98, "unit": "%"}, {"measurement": "viability at 5 days", "setting": "[2]; female, Wistar, lung, 10 ppm, lung, female, Comet with FPG (Table 11), 10 ppm inhalation, 5 days, read-out: Viability (%) (mean ± SD)", "result": "98 ± 1", "unit": "%"}, {"measurement": "viability at 5 days", "setting": "[2]; female, Wistar, lung, 10 ppm, lung, female, no FPG, 10 ppm inhalation, 5 days, individual animals, read-out: Individual viability (%)", "result": 98, "unit": "%"}, {"measurement": "viability at 5 days", "setting": "[2]; female, Wistar, lung, 10 ppm, lung, female, no FPG, 10 ppm inhalation, 5 days, read-out: Viability (%) (mean ± SD)", "result": "98 ± 1", "unit": "%"}, {"measurement": "viability at 5 days", "setting": "[2]; female, Wistar, lung, 20 ppm, lung, female, Comet with FPG (Table 11), 20 ppm inhalation, 5 days, individual animals, read-out: Individual viability (%)", "result": 98, "unit": "%"}, {"measurement": "viability at 5 days", "setting": "[2]; female, Wistar, lung, 20 ppm, lung, female, Comet with FPG (Table 11), 20 ppm inhalation, 5 days, read-out: Viability (%) (mean ± SD)", "result": "98 ± 1", "unit": "%"}, {"measurement": "viability at 5 days", "setting": "[2]; female, Wistar, lung, 20 ppm, lung, female, no FPG, 20 ppm inhalation, 5 days, individual animals, read-out: Individual viability (%)", "result": 98, "unit": "%"}, {"measurement": "viability at 5 days", "setting": "[2]; female, Wistar, lung, 20 ppm, lung, female, no FPG, 20 ppm inhalation, 5 days, read-out: Viability (%) (mean ± SD)", "result": "98 ± 1", "unit": "%"}, {"measurement": "viability at 5 days", "setting": "[2]; male, Wistar, lung, 5 ppm, lung, male, Comet with FPG (Table 10), 5 ppm inhalation, 5 days, individual animals, read-out: Individual viability (%)", "result": 97, "unit": "%"}, {"measurement": "viability at 5 days", "setting": "[2]; male, Wistar, lung, 5 ppm, lung, male, Comet with FPG (Table 10), 5 ppm inhalation, 5 days, read-out: Viability (%) (mean ± SD)", "result": "98 ± 1", "unit": "%"}, {"measurement": "viability at 5 days", "setting": "[2]; male, Wistar, lung, 5 ppm, lung, male, no FPG, 5 ppm inhalation, 5 days, individual animals, read-out: Individual viability (%)", "result": 97, "unit": "%"}, {"measurement": "viability at 5 days", "setting": "[2]; male, Wistar, lung, 5 ppm, lung, male, no FPG, 5 ppm inhalation, 5 days, read-out: Viability (%) (mean ± SD)", "result": "98 ± 1", "unit": "%"}, {"measurement": "viability at 5 days", "setting": "[2]; male, Wistar, lung, 10 ppm, lung, male, Comet with FPG (Table 10), 10 ppm inhalation, 5 days, individual animals, read-out: Individual viability (%)", "result": 99, "unit": "%"}, {"measurement": "viability at 5 days", "setting": "[2]; male, Wistar, lung, 10 ppm, lung, male, Comet with FPG (Table 10), 10 ppm inhalation, 5 days, read-out: Viability (%) (mean ± SD)", "result": "98 ± 2", "unit": "%"}, {"measurement": "viability at 5 days", "setting": "[2]; male, Wistar, lung, 10 ppm, lung, male, no FPG, 10 ppm inhalation, 5 days, individual animals, read-out: Individual viability (%)", "result": 99, "unit": "%"}, {"measurement": "viability at 5 days", "setting": "[2]; male, Wistar, lung, 10 ppm, lung, male, no FPG, 10 ppm inhalation, 5 days, read-out: Viability (%) (mean ± SD)", "result": "98 ± 2", "unit": "%"}, {"measurement": "viability at 5 days", "setting": "[2]; male, Wistar, lung, 20 ppm, lung, male, Comet with FPG (Table 10), 20 ppm inhalation, 5 days, individual animals, read-out: Individual viability (%)", "result": 100, "unit": "%"}, {"measurement": "viability at 5 days", "setting": "[2]; male, Wistar, lung, 20 ppm, lung, male, Comet with FPG (Table 10), 20 ppm inhalation, 5 days, read-out: Viability (%) (mean ± SD)", "result": "99 ± 1", "unit": "%"}, {"measurement": "viability at 5 days", "setting": "[2]; male, Wistar, lung, 20 ppm, lung, male, no FPG, 20 ppm inhalation, 5 days, individual animals, read-out: Individual viability (%)", "result": 100, "unit": "%"}, {"measurement": "viability at 5 days", "setting": "[2]; male, Wistar, lung, 20 ppm, lung, male, no FPG, 20 ppm inhalation, 5 days, read-out: Viability (%) (mean ± SD)", "result": "99 ± 1", "unit": "%"}]}]}
